Assays:
Format in all cases: physicochemical
[1] = Standing of crystals at room temperature
Text: It is difficult to store type-A crystals of compound D for a long period.
Type-C crystals of compound D can be produced by, for example, leaving type-A crystals of compound D to stand at room temperature.
The standing time may be one week to one year.

[2] = Storage stability of crystals of compound D at 60° C. and 75% relative humidity (Test Example 2), crystal form by infrared absorption spectrum; settings: for change of crystal form on storage (summary in words) / stability on storage (summary in words): up to 8 weeks
Description: Type-A crystals, type-B crystals or type-C crystals of compound D were packed in double plastic bags and stored under conditions of 60° C. temperature and 75% relative humidity. Sampling was performed over time, and the crystal form was determined by infrared absorption spectrum measurement.

[3] = Solubility in organic solvents
Text: Therefore, compound C is isolated according to any method such as neutralization crystallization in an aqueous solvent.

change of crystal form when left to stand [1]	change of crystal form on storage (summary in words) ([2]; 60° C., 75% relative humidity)	crystal form after storage ([2]; double plastic bags, 60° C., 75% relative humidity, 8 weeks)	storage stability (general statement) [2]	stability on storage (summary in words) ([2]; 60° C., 75% relative humidity)	solubility in various organic solvents [3]	SMILES
converted into type-C crystals	changed to type-C crystals	A + C(major)				NC(=O)c1nc(Br)cnc1O [Type-A crystals, 6-bromo-3-hydroxy-2-pyrazinecarboxamide]
	not changed		excellent in storage stability	stable		NC(=O)c1nc(Br)cnc1O [Type-B crystals, 6-bromo-3-hydroxy-2-pyrazinecarboxamide]
	not changed			stable		NC(=O)c1nc(Br)cnc1O [Type-C crystals, 6-bromo-3-hydroxy-2-pyrazinecarboxamide]
					hardly soluble	NC(=O)c1nccnc1O [compound C, 3-hydroxy-2-pyrazinecarboxamide]

Source: patent US10519117B2, “Crystal forms of 6-bromo-3-hydroxy-2-pyrazinecarboxamide” (FUJIFILM Toyama Chemical Co., Ltd., priority 2015, dated 2019)
